Laboratory results as given in patent US20250051338A1, “TYK2 DEGRADERS AND USES THEREOF” (Kymera Therapeutics, Inc., priority 2021, published 2025).

What was measured:
Assay type in all cases: cell-based
TYK2 [1] = target: T1, TYK2 (Homo sapiens, UniProt P29597); experiment: TYK2 degradation MSD assay in human PBMC cells; design: endogenous in cells; host or cells: human PBMC; settings: 4 to 24 hours incubation, read-out: TYK2 MSD DC50 rating in human PBMC
Experimental: (§1) Example 3. TYK2 Degradation MSD Assay in EBV-B, OCI-LY10, and Human PBMC Cells
(§2) Degradation of TYK2 in cells was quantitatively measured using Meso Scale Discovery (MSD) technology. EBV-B, OCI-LY10 or human PBMC cells were seeded in 96-well plates with a density of 0.4 million cells per well in 100 μl fresh media. Compounds were then added to the assay plates with a final top concentration of 1 to 10 μM in a 1:3 dilution series with total of 9 doses. The assay plates were then incubated for 4 to 24 hours at 37° C. under 5% CO2. The assay plates were then centrifuged for 5 minutes, and the cell pellets were treated with 100 μl/well RIPA lysis buffer (Boston Bioproducts, BP-115D) with protease and phosphatase inhibitors (Roche, 05892791001 and 04906837001). To prepare MSD assay plates (MSD, L15XA), the plates were coated with the capture antibody (Santa Cruz Biotechnology, SC-5271) in PBS, at 40 μl/well. The plates were then incubated overnight at 4° C., washed 3 times with 150 μl/well TBST buffer (Cell Signaling Technology, 9997S) and blocked with 150 μl/well blocking buffer (MSD, R93BA-4). Cell lysates were then added to MSD assay plates and the plates were incubated at room temperature for 1 hour. The plates were then washed 3 times with 150 μl/well TBST buffer and 25 μl/well primary detection antibody (Cell Signaling Technology, #9312). The assay plates were then incubated at room temperature for 1 hour, washed 3 times with 150 μl/well TBST buffer, and 25 μl/well secondary detection antibody, SULFO-TAG anti-rabbit antibody (MSD, R32AB-1) were added. The assay plates were then incubated at room temperature for 1 hour, washed 3 times with 150 μl/well TBST buffer, and 150 μl/well MSD reading buffer (MSD, R92TC-2) were added. The plates were then analyzed by an MSD reader. The data was analyzed by GraphPad Prism and the dose dependent TYK2 degradation was fit using the four-parameter inhibitor vs. response nonlinear regression. The DC50 data were measured and categorized into different levels in Table H. The compound with DC50 less than or equal to 1 nM is marked as A, with DC50 more than 1 nM and less than or equal to 10 nM is marked as B, with DC50 more than 10 nM and less than or equal to 100 nM is marked as C, and with DC50 more than 100 nM or not available is marked as D.

TYK2 [2] = target: T1, TYK2; experiment: TYK2 degradation MSD assay in EBV-B cells; design: endogenous in cells; host or cells: EBV-B cells; settings: 4 to 24 hours incubation, read-out: TYK2 MSD DC50 rating in EBV-B
Experimental: as §1, §2

TYK2 [3] = target: T1, TYK2; experiment: TYK2 degradation MSD assay in OCI-LY10 cells; design: endogenous in cells; host or cells: EBV-B cells; settings: 4 to 24 hours incubation, read-out: TYK2 MSD DC50 rating in OCI-LY10
Experimental: as §1, §2

T1 sequence (P29597 whole entry): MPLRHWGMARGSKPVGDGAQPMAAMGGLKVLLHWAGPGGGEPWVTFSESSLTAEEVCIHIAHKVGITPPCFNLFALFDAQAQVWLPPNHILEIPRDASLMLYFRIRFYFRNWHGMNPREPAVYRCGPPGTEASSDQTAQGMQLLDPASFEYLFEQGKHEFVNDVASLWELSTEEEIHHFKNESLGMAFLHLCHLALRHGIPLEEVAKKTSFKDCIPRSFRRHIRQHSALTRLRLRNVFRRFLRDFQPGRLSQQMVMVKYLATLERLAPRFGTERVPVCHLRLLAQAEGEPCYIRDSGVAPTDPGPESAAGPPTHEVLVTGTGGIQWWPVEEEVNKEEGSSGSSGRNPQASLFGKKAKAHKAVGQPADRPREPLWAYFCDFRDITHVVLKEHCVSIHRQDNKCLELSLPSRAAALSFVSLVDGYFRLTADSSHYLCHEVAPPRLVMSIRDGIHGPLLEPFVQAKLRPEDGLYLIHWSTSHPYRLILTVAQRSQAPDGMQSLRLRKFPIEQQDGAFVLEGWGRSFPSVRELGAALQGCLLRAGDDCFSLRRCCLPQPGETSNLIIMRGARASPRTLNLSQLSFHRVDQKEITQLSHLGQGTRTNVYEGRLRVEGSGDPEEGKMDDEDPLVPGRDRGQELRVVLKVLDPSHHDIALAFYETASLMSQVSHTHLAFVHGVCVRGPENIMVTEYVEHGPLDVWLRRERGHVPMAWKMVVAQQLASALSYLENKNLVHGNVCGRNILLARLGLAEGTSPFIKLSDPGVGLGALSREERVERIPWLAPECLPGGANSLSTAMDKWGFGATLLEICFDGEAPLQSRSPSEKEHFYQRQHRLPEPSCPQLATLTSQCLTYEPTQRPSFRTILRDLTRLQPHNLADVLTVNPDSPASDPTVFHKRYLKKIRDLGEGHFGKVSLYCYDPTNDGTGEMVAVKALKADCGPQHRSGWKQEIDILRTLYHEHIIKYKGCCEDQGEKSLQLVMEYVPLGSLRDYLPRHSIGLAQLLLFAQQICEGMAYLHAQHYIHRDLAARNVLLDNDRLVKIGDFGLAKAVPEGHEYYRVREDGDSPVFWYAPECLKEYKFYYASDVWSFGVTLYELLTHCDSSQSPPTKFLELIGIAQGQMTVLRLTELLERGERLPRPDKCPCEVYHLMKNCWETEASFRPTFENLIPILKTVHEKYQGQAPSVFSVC

DC50 (TYK2 [1]) [nM]	DC50 (TYK2 [2]) [nM]	DC50 (TYK2 [3]) [nM]	Structure (SMILES)
> 100	> 100	< 1	CNc1cc(Nc2cccn(-c3ccc(C(=O)N4CCC(N5CC(c6ccc7c(c6)n(C)c(=O)n7C6CCC(=O)NC6=O)C5)CC4)cn3)c2=O)nn2c(C(=O)N[C@@H]3C[C@@H]3F)cnc12 (stereo partly drawn) [Example K410]
< 1	> 100	< 1	CNC(=O)c1cnc(Nc2ccc(CN3CCC(OC4CC(c5cccc6c5n(C)c(=O)n6C5CCC(=O)NC5=O)C4)CC3)cn2)cc1Nc1cccc(-c2ncc(F)cn2)c1OC (stereo not drawn) [Example K141]
> 100	1 to 10	> 100	CNC(=O)c1cnc(Nc2ccc(C3CN(Cc4ccc5c(c4)n(C)c(=O)n5C4CCC(=O)NC4=O)C3)cn2)cc1Nc1cccc(-c2ncc(F)cn2)c1OC (stereo not drawn) [Example K707]
> 100	< 1	> 100	CNc1cc(Nc2cccn(-c3ccc(C(=O)N4CCC(n5cc(-c6ccc7c(c6)n(C)c(=O)n7C6CCC(=O)NC6=O)cn5)CC4)cn3)c2=O)nn2c(C(=O)N[C@@H]3C[C@@H]3F)cnc12 (stereo partly drawn) [Example K395]
> 100	> 100	1 to 10	CNc1cc(N2CCc3c(-c4ccc(CN5CCN(c6cccc7c6n(C)c(=O)n7C6CCC(=O)NC6=O)CC5)cn4)cccc32)nn2c(C(=O)N[C@@H]3C[C@@H]3F)cnc12 (stereo partly drawn) [Example K637]
1 to 10	> 100	> 100	CNC(=O)c1cnc(NC(=O)NCCCCCCCCCc2cccc3c2n(C)c(=O)n3C2CCC(=O)NC2=O)cc1Nc1cccc(-c2ncc(F)cn2)c1OC (stereo not drawn) [Example K183]
> 100	1 to 10	< 1	CNc1cc(Nc2cccc(-c3ccc(CN4CCC(CCc5cccc6c5n(C)c(=O)n6C5CCC(=O)NC5=O)CC4)cn3)c2)nn2c(C(=O)N[C@@H]3C[C@@H]3F)cnc12 (stereo partly drawn) [Example K507]
< 1	> 100	> 100	CNc1cc(Nc2ccccc2C(=O)NCCCCCCCCc2ccc3c(c2)n(C)c(=O)n3C2CCC(=O)NC2=O)nn2c(C(=O)N[C@@H]3C[C@@H]3F)cnc12 (stereo partly drawn) [Example K256]
> 100	< 1	> 100	CNC(=O)c1cnc(Nc2ccc(CN(C)C3CCN(c4ccc5c(c4)n(C)c(=O)n5C4CCC(=O)NC4=O)C3)cn2)cc1Nc1cccc(-c2ncc(F)cn2)c1OC (stereo not drawn) [Example K170]
> 100	> 100	1 to 10	CNc1cc(Nc2cccc(-c3ccc(CN4CCN(c5ccc(-c6ccc7c(c6)n(C)c(=O)n7C6CCC(=O)NC6=O)cc5)CC4)cn3)c2OC)nn2c(C(=O)NC(C)C)cnc12 (stereo not drawn) [Example K528]
< 1	> 100	> 100	CNC(=O)c1cnc(Nc2cc(C(=O)NCCCCc3ccc4c(c3)n(C)c(=O)n4C3CCC(=O)NC3=O)ccn2)cc1Nc1cccc(-c2ncc(F)cn2)c1OC (stereo not drawn) [Example K126]
> 100	> 100	< 1	CNc1cc(N2CCc3c(N4CCC(CN5CCN(c6ccc7c(c6)n(C)c(=O)n7C6CCC(=O)NC6=O)CC5)CC4)cccc32)nn2c(C(=O)N[C@@H]3C[C@@H]3F)cnc12 (stereo partly drawn) [Example K638]
> 100	> 100	> 100	Cn1c(=O)n(C2CCC(=O)NC2=O)c2ccc(C#CC3CCN(Cc4ccc(-c5cccc(Nc6ccc7ncc(C(=O)NC8CC8)n7n6)c5)nc4)CC3)cc21 (stereo not drawn) [Example K404]
> 100	10 to 100	1 to 10	CNc1cc(N2CCc3c(-c4ccc(CN5CCN(c6ccc(-c7ccc8c(c7)n(C)c(=O)n8C7CCC(=O)NC7=O)cc6)CC5)cn4)cccc32)nn2c(C(=O)N[C@@H]3C[C@@H]3F)cnc12 (stereo partly drawn) [Example K505]
> 100	> 100	< 1	CNc1cc(Nc2cccn(-c3ccc(C(=O)N4CC5(CC(CN6CCN(c7ccc8c(c7)n(C)c(=O)n8C7CCC(=O)NC7=O)CC6)CO5)C4)cn3)c2=O)nn2c(C(=O)N[C@@H]3C[C@@H]3F)cnc12 (stereo partly drawn) [Example K418]
1 to 10	1 to 10	> 100	CNC(=O)c1cnc(Nc2ccc(C(=O)NCCCCCCCCc3cccc4c3n(C)c(=O)n4C3CCC(=O)NC3=O)cn2)cc1Nc1cccc(-c2ncc(F)cn2)c1OC (stereo not drawn) [Example K116]
> 100	> 100	> 100	Cn1c(=O)n(C2CCC(=O)NC2=O)c2ccc(CN3CCC(Nc4cc(Nc5cccn(-c6ccccn6)c5=O)nn5c(C(=O)N[C@@H]6C[C@@H]6F)cnc45)CC3)cc21 (stereo partly drawn) [Example K367]
> 100	> 100	> 100	Cn1c(=O)n(C2CCC(=O)NC2=O)c2ccc(C3CN(C4CCN(Cc5ccc(-c6cccc(Nc7ccc8ncc(C(=O)NC9CC9)n8n7)c6)nc5)CC4)C3)cc21 (stereo not drawn) [Example K405]
> 100	< 1	< 1	CNc1cc(Nc2cccn(-c3ccc(C(=O)N4CCC(N5CCC(N6CCN(c7ccc8c(c7)n(C)c(=O)n8C7CCC(=O)NC7=O)CC6)CC5)CC4)cn3)c2=O)nn2c(C(=O)N[C@@H]3C[C@@H]3F)cnc12 (stereo partly drawn) [Example K453]
> 100	> 100	> 100	Cn1c(=O)n(C2CCC(=O)NC2=O)c2ccc(CN3CCC(CNc4cc(Nc5cccn(-c6ccccn6)c5=O)nn5c(C(=O)N[C@@H]6C[C@@H]6F)cnc45)CC3)cc21 (stereo partly drawn) [Example K360]
> 100	> 100	< 1	CNc1cc(Nc2cccc(CN3CCC(N(C)CC4CCN(c5ccc(-c6ccc7c(c6)n(C)c(=O)n7C6CCC(=O)NC6=O)cc5)C4)CC3)c2)nn2c(C(=O)NC3CC3)cnc12 (stereo not drawn) [Example K583]
> 100	> 100	< 1	CNc1cc(Nc2cccn(-c3ccc(C(=O)N4CCC5(CCN(c6ncc(C#Cc7ccc8c(c7)n(C)c(=O)n8C7CCC(=O)NC7=O)cn6)C5=O)C4)cn3)c2=O)nn2c(C(=O)N[C@@H]3C[C@@H]3F)cnc12 (stereo partly drawn) [Example K441]
> 100	> 100	> 100	CNc1cc(Nc2cccc(CN3CCN(c4ccc5c(c4)n(C)c(=O)n5C4CCC(=O)NC4=O)CC3)c2)nn2c(C(=O)NC3CC3)cnc12 (stereo not drawn) [Example K591]
< 1	< 1	> 100	CNC(=O)c1cnc(Nc2ccc(CN3CCN(CCc4ccc5c(c4)n(C)c(=O)n5C4CCC(=O)NC4=O)CC3)cn2)cc1Nc1cccc(-c2ncc(F)cn2)c1OC (stereo not drawn) [Example K138]
1 to 10	> 100	> 100	CNc1cc(Nc2cccn(-c3cc(C(=O)NCCCCc4cccc5c4n(C)c(=O)n5C4CCC(=O)NC4=O)ccn3)c2=O)nn2c(C(=O)N[C@@H]3C[C@@H]3F)cnc12 (stereo partly drawn) [Example K228]
> 100	> 100	1 to 10	CNc1cc(Nc2cccnc2OCC2CCN(C3CCN(c4ccc5c(c4)n(C)c(=O)n5C4CCC(=O)NC4=O)CC3)CC2)nn2c(C(=O)NC3CC3F)cnc12 (stereo not drawn) [Example K659]
> 100	1 to 10	> 100	CNC(=O)c1cnc(Nc2ccc(C(=O)N(C)C3CCN(c4ccc5c(c4)n(C)c(=O)n5C4CCC(=O)NC4=O)CC3)cn2)cc1Nc1ccccc1OC (stereo not drawn) [Example K133]
< 1	< 1	> 100	CNC(=O)c1cnc(Nc2ccc(C(=O)N(C)C3CCN(c4ccc5c(c4)n(C)c(=O)n5C4CCC(=O)NC4=O)CC3)cn2)cc1Nc1cccc(-c2ncc(F)cn2)c1OC (stereo not drawn) [Example K178]
> 100	> 100	< 1	CNc1cc(Nc2cccc(N3CCC(CN4CCC(c5ccc(-c6ccc7c(c6)n(C)c(=O)n7C6CCC(=O)NC6=O)cc5)CC4)CC3)c2OC)nn2c(C(=O)N[C@@H]3C[C@@H]3F)cnc12 (stereo partly drawn) [Example K622]
> 100	< 1	> 100	CNC(=O)c1cnc(Nc2ccc(CN3CCN(c4cccc5c4n(C)c(=O)n5C4CCC(=O)NC4=O)CC3)cn2)cc1Nc1cccc(-c2ncc(F)cn2)c1OC (stereo not drawn) [Example K173]
